This note sets out measurements from ChEMBL document CHEMBL4270604, “Hedgehog pathway inhibitors of the acylthiourea and acylguanidine class show antitumor activity on colon cancer in vitro and in vivo” (Eur J Med Chem, 2018).

Bounds are passed on as bounds.

Data set [1] can be described thus: in vitro. The settings on record: human, Caco-2.
Description: Apparent permeability of the compound from apical to basolateral side in human Caco2 cells assessed as drug recovery after 120 mins by LC-MS/MS analysis
A short description of data set [2]: in vitro. Conditions: human, Caco-2; call rule not given here. The source holds these as a separate data set.
Data set [3] is filed under the species Mus musculus. The data set can be described thus: Inhibition of hedgehog signaling pathway in mouse Light2 cells stimulated with 100 nM SAG after 30 hrs by Gli-firefly luciferase reporter gene assay. For orientation: A reporter such as luciferase makes a cellular process visible.
Test in data set [4]: as above
Data set [5] concerns HT-1080. Put plainly: Antiproliferative activity against human HT1080 cells after 72 hrs by sulforhodamine-B assay. The settings on record: for IC50: HT-1080, 72 h. The class given is functional, cell-based.
In data set [6] the target is T1, Coelenterazine h 2-monooxygenase (Renilla reniformis, UniProt P27652).
T1 sequence (P27652 whole entry): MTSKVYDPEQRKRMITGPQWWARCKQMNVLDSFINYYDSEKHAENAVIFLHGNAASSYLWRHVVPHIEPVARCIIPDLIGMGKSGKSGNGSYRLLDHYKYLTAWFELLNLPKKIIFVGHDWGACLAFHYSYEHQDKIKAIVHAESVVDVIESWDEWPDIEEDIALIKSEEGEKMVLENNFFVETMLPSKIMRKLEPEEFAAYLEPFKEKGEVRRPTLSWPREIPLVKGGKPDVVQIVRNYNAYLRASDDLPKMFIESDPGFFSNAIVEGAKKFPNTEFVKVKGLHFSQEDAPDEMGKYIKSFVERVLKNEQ
The data set can be described thus: Effect on Renilla reniformis luciferase. The format is ADME.

Data set [7] has as its system LS180. The data set can be described thus: Antiproliferative activity against human LS180 cells after 72 hrs by sulforhodamine-B assay. Conditions: for IC50: LS180, 72 h. The class given is functional, cell-based. In general terms: In SRB staining, fixed cells bind dye roughly in proportion to their protein.
The nature of data set [8]: Inhibition of hedgehog signaling pathway-mediated differentiation of mouse C3H10T1/2 cells assessed as decrease in SAG-induced ALP activity after 6 days by chemiluminescence-based assay. Conditions: C3H 10T1/2, 144 h.
The nature of data set [9]: Half life in cryopreserved mouse liver microsomes at 1 uM after 120 mins by HPLC-MS/MS analysis. The format is ADME, microsome.
Data set [10] can be described thus: Intrinsic clearance in mouse liver […] per million cells at 1 uM after 120 mins by HPLC-MS/MS analysis. The class given is ADME. The settings on record: 2 h. On the technique in general: Microsomes from liver hold many membrane-bound enzymes, among them those of drug oxidation.
Data set [11] can be described thus: Intrinsic clearance in mouse liver microsomes at 1 uM after 120 mins by HPLC-MS/MS analysis. The class given is ADME, microsome. Conditions: read-out: CLH.
Data set [12] is described as follows: Drug recovery in mouse plasma at 37 degC after 120 mins by HPLC-MS/MS analysis. The settings on record: read-out: Drug recovery. The class given is ADME, cell-free.
In data set [13] the target is T2, CYP2D6 (Homo sapiens, UniProt P10635). Put plainly: Inhibition of recombinant human CYP2D6 expressed in insect cell microsomes at 5 uM using Luciferin-ME EGE as substrate preincubated for 30 mins followed by NADPH addition measured after 45 mins by luminometric method. The format is ADME. The settings on record: probe Luciferin-ME EGE.
T2 sequence (P10635 whole entry): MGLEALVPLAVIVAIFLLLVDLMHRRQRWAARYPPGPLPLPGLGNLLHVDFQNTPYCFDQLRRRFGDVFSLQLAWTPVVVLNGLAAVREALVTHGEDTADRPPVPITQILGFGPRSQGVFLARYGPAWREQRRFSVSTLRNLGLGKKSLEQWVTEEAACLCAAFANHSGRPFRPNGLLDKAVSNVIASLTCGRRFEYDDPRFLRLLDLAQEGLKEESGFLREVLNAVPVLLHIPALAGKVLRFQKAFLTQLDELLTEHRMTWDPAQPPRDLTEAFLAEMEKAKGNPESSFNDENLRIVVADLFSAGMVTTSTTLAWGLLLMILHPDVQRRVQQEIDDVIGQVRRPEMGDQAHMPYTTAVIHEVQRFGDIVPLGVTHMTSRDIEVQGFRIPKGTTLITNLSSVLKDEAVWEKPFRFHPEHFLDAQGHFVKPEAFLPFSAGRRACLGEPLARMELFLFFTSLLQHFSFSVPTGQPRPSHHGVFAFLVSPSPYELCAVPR
The target in data set [14] is T3, CYP2C19 (Homo sapiens, UniProt P33261). The data set can be described thus: Inhibition of recombinant human CYP2C19 expressed in insect cell microsomes at 1 uM using Luciferin-H EGE as substrate preincubated for 20 mins followed by NADPH addition measured after 30 mins by luminometric method. Conditions: probe Luciferin-H EGE. The class given is ADME.
T3 sequence (P33261 whole entry): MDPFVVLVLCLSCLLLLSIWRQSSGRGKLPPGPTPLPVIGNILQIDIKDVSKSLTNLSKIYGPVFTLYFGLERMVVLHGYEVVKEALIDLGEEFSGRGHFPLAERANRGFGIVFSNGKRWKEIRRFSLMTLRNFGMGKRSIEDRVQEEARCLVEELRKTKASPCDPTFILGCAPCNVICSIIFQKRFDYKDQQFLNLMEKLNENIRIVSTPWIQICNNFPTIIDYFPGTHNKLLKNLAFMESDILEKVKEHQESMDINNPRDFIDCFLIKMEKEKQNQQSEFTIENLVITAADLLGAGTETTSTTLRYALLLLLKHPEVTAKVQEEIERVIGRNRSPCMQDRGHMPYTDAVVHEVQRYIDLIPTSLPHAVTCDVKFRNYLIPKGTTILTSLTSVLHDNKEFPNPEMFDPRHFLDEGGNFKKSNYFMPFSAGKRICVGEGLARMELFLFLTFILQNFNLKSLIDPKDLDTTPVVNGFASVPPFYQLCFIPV
The target in data set [15] is T4, CYP2C9 (Homo sapiens, UniProt P11712). Put plainly: Inhibition of recombinant human CYP2C9 expressed in insect cell microsomes at 1 uM using Luciferin-H as substrate preincubated for 30 mins followed by NADPH addition measured after 30 mins by luminometric method. The settings on record: probe Luciferin-H. The format is ADME.
T4 sequence (P11712 whole entry): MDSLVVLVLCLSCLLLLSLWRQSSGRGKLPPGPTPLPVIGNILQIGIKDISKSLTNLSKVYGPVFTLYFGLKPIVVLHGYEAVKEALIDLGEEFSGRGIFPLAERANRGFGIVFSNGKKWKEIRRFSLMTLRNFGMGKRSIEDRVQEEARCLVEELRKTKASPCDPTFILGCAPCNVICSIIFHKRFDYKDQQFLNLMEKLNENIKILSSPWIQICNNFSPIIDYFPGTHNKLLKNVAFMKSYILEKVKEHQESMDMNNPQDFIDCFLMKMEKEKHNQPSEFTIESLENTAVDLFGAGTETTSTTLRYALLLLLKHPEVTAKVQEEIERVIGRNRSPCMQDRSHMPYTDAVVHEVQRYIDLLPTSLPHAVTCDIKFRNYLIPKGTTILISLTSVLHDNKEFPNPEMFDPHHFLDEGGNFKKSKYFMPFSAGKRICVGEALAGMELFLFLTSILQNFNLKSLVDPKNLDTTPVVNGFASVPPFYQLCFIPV
Data set [16] is described as follows: in vitro. Conditions: human, Caco-2. This is another data set of the same source.
Description: Apparent permeability of the compound from basolateral to apical side in human Caco2 cells assessed as drug recovery after 120 mins by LC-MS/MS analysis
Data set [17] has as its target T5, CYP3A4 (Homo sapiens, UniProt P08684). The data set can be described thus: Inhibition of recombinant human CYP3A4 expressed in insect cell microsomes at 1 uM using Luciferin-IPA as substrate preincubated for 10 mins followed by NADPH addition measured after 10 mins by luminometric method. The format is ADME. Conditions: probe Luciferin-IPA.
The target of data set [18] is T6, CYP1A2 (Homo sapiens, UniProt P05177).
T6 sequence (P05177 whole entry): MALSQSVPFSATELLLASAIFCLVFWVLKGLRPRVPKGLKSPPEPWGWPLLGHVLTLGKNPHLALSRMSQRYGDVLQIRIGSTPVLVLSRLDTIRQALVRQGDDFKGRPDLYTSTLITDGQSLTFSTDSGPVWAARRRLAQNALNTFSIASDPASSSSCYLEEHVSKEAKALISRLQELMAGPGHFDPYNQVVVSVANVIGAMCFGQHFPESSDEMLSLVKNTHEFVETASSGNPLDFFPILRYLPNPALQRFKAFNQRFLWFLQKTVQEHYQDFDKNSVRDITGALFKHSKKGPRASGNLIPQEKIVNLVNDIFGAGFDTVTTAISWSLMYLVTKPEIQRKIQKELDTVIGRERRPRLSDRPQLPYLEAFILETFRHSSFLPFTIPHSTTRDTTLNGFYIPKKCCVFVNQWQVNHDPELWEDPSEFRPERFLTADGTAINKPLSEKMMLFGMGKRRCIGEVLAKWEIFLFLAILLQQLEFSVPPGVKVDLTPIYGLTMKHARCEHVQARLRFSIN
The data set can be described thus: Inhibition of recombinant human CYP1A2 expressed in insect cell microsomes at 10 uM using Luciferin-ME as substrate preincubated for 10 mins followed by NADPH addition measured after 30 mins by luminometric method. Conditions: probe Luciferin-ME. The format is ADME.

Data set [19] has as its target T6, CYP1A2. The data set can be described thus: Inhibition of recombinant human CYP1A2 expressed in insect cell microsomes at 1 uM using Luciferin-ME as substrate preincubated for 10 mins followed by NADPH addition measured after 30 mins by luminometric method. The format is ADME. The settings on record: probe Luciferin-ME.
The target of data set [20] is T3, CYP2C19. The data set can be described thus: Inhibition of recombinant human CYP2C19 expressed in insect cell microsomes at 5 uM using Luciferin-H EGE as substrate preincubated for 20 mins followed by NADPH addition measured after 30 mins by luminometric method. The class given is ADME. The settings on record: probe Luciferin-H EGE.
The target of data set [21] is T4, CYP2C9. Put plainly: Inhibition of recombinant human CYP2C9 expressed in insect cell microsomes at 5 uM using Luciferin-H as substrate preincubated for 30 mins followed by NADPH addition measured after 30 mins by luminometric method. The settings on record: probe Luciferin-H. The class given is ADME.
Data set [22] is described as follows: Stability of the compound in mouse deproteinized plasma at 37 degC after 120 mins by HPLC-MS/MS analysis. The format is ADME, cell-free. Conditions: 2 h.
Data set [23] addresses T4, CYP2C9. Put plainly: Inhibition of recombinant human CYP2C9 expressed in insect cell microsomes at 10 uM using Luciferin-H as substrate preincubated for 30 mins followed by NADPH addition measured after 30 mins by luminometric method. The settings on record: probe Luciferin-H. The class given is ADME.
The target of data set [24] is T5, CYP3A4. Put plainly: Inhibition of recombinant human CYP3A4 expressed in insect cell microsomes at 5 uM using Luciferin-IPA as substrate preincubated for 10 mins followed by NADPH addition measured after 10 mins by luminometric method. The settings on record: probe Luciferin-IPA. The format is ADME.
The target of data set [25] is T2, CYP2D6. Put plainly: Inhibition of recombinant human CYP2D6 expressed in insect cell microsomes at 10 uM using Luciferin-ME EGE as substrate preincubated for 30 mins followed by NADPH addition measured after 45 mins by luminometric method. The class given is ADME. Conditions: probe Luciferin-ME EGE.
The species named for data set [26] is Homo sapiens. The data set can be described thus: Substrate activity at recombinant human P-gp in membrane fraction assessed as increase in ATPase activity at 10 uM by luminescent P-gp-Glo assay relative to control.
Data set [27] has as its target T6, CYP1A2. Put plainly: Inhibition of recombinant human CYP1A2 expressed in insect cell microsomes at 5 uM using Luciferin-ME as substrate preincubated for 10 mins followed by NADPH addition measured after 30 mins by luminometric method. Conditions: probe Luciferin-ME. The format is ADME.
In data set [28] the target is T2, CYP2D6. Put plainly: Inhibition of recombinant human CYP2D6 expressed in insect cell microsomes at 1 uM using Luciferin-ME EGE as substrate preincubated for 30 mins followed by NADPH addition measured after 45 mins by luminometric method. Conditions: probe Luciferin-ME EGE. The class given is ADME.
For data set [29], the target named is T3, CYP2C19. The data set can be described thus: Inhibition of recombinant human CYP2C19 expressed in insect cell microsomes at 10 uM using Luciferin-H EGE as substrate preincubated for 20 mins followed by NADPH addition measured after 30 mins by luminometric method. The class given is ADME. The settings on record: probe Luciferin-H EGE.
For data set [30], the target named is T5, CYP3A4. The data set can be described thus: Inhibition of recombinant human CYP3A4 expressed in insect cell microsomes at 10 uM using Luciferin-IPA as substrate preincubated for 10 mins followed by NADPH addition measured after 10 mins by luminometric method. The format is ADME. The settings on record: probe Luciferin-IPA.

T5 sequence (P08684 whole entry): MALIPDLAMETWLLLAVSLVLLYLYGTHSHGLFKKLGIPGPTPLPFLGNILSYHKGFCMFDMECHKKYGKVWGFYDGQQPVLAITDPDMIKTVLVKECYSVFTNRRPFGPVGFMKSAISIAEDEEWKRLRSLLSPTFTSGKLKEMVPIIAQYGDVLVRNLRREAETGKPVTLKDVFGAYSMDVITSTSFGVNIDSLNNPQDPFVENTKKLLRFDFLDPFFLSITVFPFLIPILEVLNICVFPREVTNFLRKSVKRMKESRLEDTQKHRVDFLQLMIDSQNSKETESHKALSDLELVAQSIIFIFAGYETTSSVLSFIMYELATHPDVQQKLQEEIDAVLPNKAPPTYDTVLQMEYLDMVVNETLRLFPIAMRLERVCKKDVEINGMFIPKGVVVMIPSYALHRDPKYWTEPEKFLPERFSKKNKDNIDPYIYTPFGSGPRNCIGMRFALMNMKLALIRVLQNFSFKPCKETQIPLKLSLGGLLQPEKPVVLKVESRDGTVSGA

Take `CC(C)NCC(O)COc1cccc2ccccc12` (stereo not given) [PROPRANOLOL]: the recovery at 2 h in data set [1] turned out to be 70%. The Papp A→B (commonly how fast a substance crosses the layer from the apical side) at 2 h in data set [2] was found to be 30.9 ×10⁻⁶ cm/s.
As for `CS(=O)(=O)c1ccc(C(=O)Nc2ccc(Cl)c(-c3ccccn3)c2)c(Cl)c1` [VISMODEGIB], the inhibition (in general, how much of the control response was suppressed) in data set [3] was “Dose-dependent effect”. The IC50 (commonly the midpoint of a concentration-inhibition curve) in data set [4] is 50 nM; in data set [5], over 100000 nM; in data set [7], 45000 nM; in data set [8], 50 nM. The Activity result in data set [5] is “Dose-dependent effect”; in [6], “Not Active”; in data set [7], “Dose-dependent effect”.
With `CCOc1ccc2ccc(=O)oc2c1` [ETHOXYCOUMARIN], the half-life (usually how long it takes for the measured level to halve) at 1 µM in data set [9] is 4.84 min. For the same molecule, the CLH in data set [10] worked out at 477 µL/min. Further, in data set [11], the CLint scaled at 1 µM turned out to be 1260 mL/min/kg.
As to `COc1cc(C(=O)NC(=S)Nc2ccc(C)c(NC(=O)c3ccc(-c4ccc(F)cc4)cc3)c2)cc(OC)c1OC`, in [3], the inhibition result is “Dose-dependent effect”. Moreover, the IC50 in data set [4] is 100 nM; in data set [5] it was 27000 nM; in data set [7] it was 7500 nM; in data set [8], 670 nM. In data set [12], the remaining at 2 h came to 4.9%. Further, the results for the Activity result in [5], in [6] and in data set [7] were “Dose-dependent effect”, “Not Active” and “Dose-dependent effect”, respectively. For the same molecule, the inhibition at 0.75 h, 5 µM in data set [13] stood at 1%. For the same molecule, the inhibition at 0.5 h, 1 µM in data set [14] is 25%; in data set [15] it was 63%; in data set [19], 2%. In addition, the values for the recovery at 2 h in data set [16] and in [1] were 42.9% and 65.4%, respectively. Further, in [17], the inhibition at 10 min, 1 µM is 4%. Besides, the inhibition at 0.5 h, 10 µM in [18] is 1%; in data set [23], 71%; in [29], 27%. Also, the values for the inhibition at 0.5 h, 5 µM in data set [20], in [21] and in data set [27] were 33%, 69% and 5%, respectively. Further, in data set [22], the Stability result is reported as “Stable”. Moreover, the inhibition at 10 min, 5 µM in data set [24] amounted to 7%. The inhibition at 0.75 h, 10 µM in data set [25] stood at 6%. In data set [26], the fold change (FC) turned out to be 3. Besides, the inhibition at 0.75 h, 1 µM in data set [28] came to 18%. Further, the inhibition at 10 min, 10 µM in data set [30] is 15%.
On to `CC(C)NCC(O)COc1ccc(CC(N)=O)cc1` (stereo not given) [ATENOLOL], for which the values for the recovery at 2 h in data set [16] and in [1] were 102% and 94.7%, respectively.
For `Cc1c(C)c2c(c(C)c1O)CCC(C)(COc1ccc(CC3SC(=O)NC3=O)cc1)O2` (stereo not given) [TROGLITAZONE], the inhibition at 0.5 h, 10 µM in data set [29] worked out at 84%.
With `COc1ccc(CCN(C)CCCC(C#N)(c2ccc(OC)c(OC)c2)C(C)C)cc1OC` (stereo not given), the fold change (FC) in data set [26] stood at 8.5.
